The text below walks through data of patent publication US7834024B2, “Compositions and methods for inhibition of the JAK pathway” (Rigel Pharmaceuticals, Inc., priority 2007, dated 2010).

One may read the IC50 as the concentration that gives 50% inhibition.

Structures can show the parent of a compound that is named as a salt.

The first assay relates to Ramos B-Cell Line Stimulated with IL-4 (JAK-1 and JAK-3 / Stat-6, CD23). In words: Assay for Ramos B-Cell Line Stimulated with IL-4 (CD23 upregulation, FACS). The assay is classed as cell-based. As to conditions: Homo sapiens, Ramos, human Ramos B cells, compound 1 hour, IL-4 50 units/mL for 20-24 hours, anti-CD23-PE FACS; read-out: Example 2 (IC50). The text has this:
One means of assaying for such inhibition is detection of the effect of the 2,4-pyrimidinediamine compounds on the upregulation of downstream gene products. In the Ramos/IL4 assay, B-cells are stimulated with the cytokine Interleukin-4 (IL-4) leading to the activation of the JAK/Stat pathway through phosphorylation of the JAK family kinases, JAK1 and JAK3, which in turn phosphorylate and activate the transcription factor Stat-6. […] To study the effect of inhibitors (e.g., the 2,4-substituted pyrimindinediamine compounds described herein) on the JAK1 and JAK3 kinases, human Ramos B cells are stimulated with human IL-4. 20 to 24 hours post stimulation, cells are stained for upregulation of CD23 and analyzed using flow cytometry (FACS).
B-cells stimulated with cytokine Interleukin-4 (IL-4) activate the JAK/Stat pathway through phosphorylation of the JAK family kinases, JAK-1 and JAK-3, which in turn phosphorylate and activate the transcription factor Stat-6. […] To study the effect of inhibitors on the JAK family kinases, human Ramos B cells were stimulated with human IL-4.
Cells were maintained at a density of 3.5×10^5. The day before the experiment, Ramos B-cells were diluted to 3.5×10^5 cells/mL to ensure that they were in a logarithmic growth phase.
Cells were spun down and suspended in RPMI with 5% serum. 5×10^4 cells were used per point in a 96-well tissue culture plate. Cells were pre-incubated with compound or DMSO (Sigma-Aldrich, St. Louis, Mo., Cat No. D2650) vehicle control for 1 hour in a 37° C. incubator. Cells were then stimulated with IL-4 (Peprotech Inc., Rocky Hill, N.J., Cat No. 200-04) for a final concentration of 50 units/mL for 20-24 hours. […] Detection was performed using a BD LSR I System Flow Cytometer, purchased from Becton Dickinson Biosciences of San Jose, Calif.
In the case of `NC(=O)c1ccc(Nc2ncc(F)c(Nc3cccc(-c4ncco4)c3)n2)cc1` [Compound I-13, N2-(4-Aminocarbonylphenyl)-5-fluoro-N4-[3-(oxazol-2-yl)phenyl]-2,4-pyrimidinediamine], the IC50 worked out at 752 nM. On the same count and under the same terms, as for `Cc1nc(COc2ccc(Nc3nc(Nc4cccc(C(N)=O)c4)ncc3F)cc2)no1` [Compound I-57, N2-(3-Aminocarbonylphenyl)-5-fluoro-N4-[4-((5-methyl-1,2,4-oxadiazol-3-yl)methoxy)phenyl]-2,4-pyrimidinediamine], the figure is 292 nM. Regarding `N#CCc1ccc(Nc2nc(Nc3cccc(C(N)=O)c3)ncc2F)cc1` [Compound I-68, N2-(3-Aminocarbonylphenyl)-N4-(4-cyanomethylphenyl)-5-fluoro-2,4-pyrimidinediamine], the half-maximal inhibitory concentration (IC50) turned out to be 1620 nM. With `Cc1nc(COc2ccc(Nc3nc(Nc4ccc(C(N)=O)cc4)ncc3F)cc2)no1` [Compound I-56, N2-(4-Aminocarbonylphenyl)-5-fluoro-N4-[4-((5-methyl-1,2,4-oxadiazol-3-yl)methoxy)phenyl]-2,4-pyrimidinediamine], the IC50 amounted to 91.4 nM. In the case of `C#CCOc1ccc(Nc2nc(Nc3ccc(C(N)=O)cc3)ncc2F)cc1` [Compound I-8, N2-(4-Aminocarbonylphenyl)-5-fluoro-N4-[4-(2-propynyloxy)phenyl]-2,4-pyrimidinediamine], the IC50 turned out to be 118 nM.

Take `CNC(=O)c1cc(Nc2ncc(F)c(Nc3cccc(OCC(N)=O)c3)n2)ccc1N1CCN(C)CC1` [Compound I-51, N4-(3-Aminocarbonylmethoxyphenyl)-5-fluoro-N2-[3-methylaminocarbonyl-4-(4-methylpiperazin-1-yl)phenyl]-2,4-pyrimidinediamine]: the IC50 stood at 357 nM. Same read-out and setting: as for `N#CCc1ccc(Nc2nc(Nc3cccc(C#N)c3)ncc2F)cc1` [Compound I-70, N4-(4-Cyanomethylphenyl)-N2-(3-cyanophenyl)-5-fluoro-2,4-pyrimidinediamine], the figure is 1150 nM; as for `N#CCOc1ccc(Nc2nc(Nc3cccc(C(N)=O)c3)ncc2F)cc1Cl` [Compound I-99, N2-(3-Aminocarbonylphenyl)-N4-(3-chloro-4-cyanomethoxyphenyl)-5-fluoro-2,4-pyrimidinediamine], 156 nM.

Turning to `CN1CCN(C(=O)c2ccc(Nc3ncc(F)c(Nc4ccc(OCC(N)=O)cc4)n3)cc2)CC1` [Compound I-36, N4-(4-Aminocarbonylmethoxyphenyl)-5-fluoro-N2-[4-((4-methylpiperazin-1-yl)carbonyl)phenyl]-2,4-pyrimidinediamine], the IC50 turned out to be 3020 nM. Turning to `COc1ccc(Nc2nc(Nc3ccc4oc(C(=O)NCCN5CCOCC5)cc4c3)ncc2F)cc1Cl` [III-1, N4-(3-Chloro-4-methoxyphenyl)-5-fluoro-N2-[2-(2-(N-morpholinyl)ethylaminocarbonyl)benzofuran-5-yl]-2,4-pyrimidinediamine], the IC50 amounted to 150 nM. In the case of `N#CCOc1ccc(Nc2nc(Nc3ccc(CC#N)cc3)ncc2F)cc1` [Compound I-64, N4-(4-Cyanomethoxyphenyl)-N2-(4-cyanomethylphenyl)-5-fluoro-2,4-pyrimidinediamine], the IC50 was found to be 79.7 nM. Regarding `Cc1noc(COc2ccc(Nc3nc(Nc4ccc(CC#N)cc4)ncc3F)cc2)n1` [Compound I-110, N2-(4-Cyanomethylphenyl)-5-fluoro-N4-[4-((3-methyl-1,2,4-oxadiazol-5-yl)methoxy)phenyl]-2,4-pyrimidinediamine], the IC50 amounted to 29.8 nM. As for `Cc1noc(CCc2ccc(Nc3nc(Nc4ccc(CC#N)cc4)ncc3F)cc2)n1` [Compound I-120, N2-(4-Cyanomethylphenyl)-5-fluoro-N4-[4-(2-(3-methyl-1,2,4-oxadiazol-5-yl)ethyl)phenyl]-2,4-pyrimidinediamine], the IC50 came to 1950 nM. On to `NC(=O)COc1ccc(Nc2nc(Nc3ccc(C(N)=O)cc3)ncc2F)cc1` [Compound I-25, N4-(4-Aminocarbonylmethoxyphenyl)-N2-(4-aminocarbonylphenyl)-5-fluoro-2,4-pyrimidinediamine], for which the IC50 came to 420 nM. Still for that read-out and setting: as for `CCc1cc(Nc2ncc(F)c(Nc3ccc(OCC#N)cc3)n2)cc(C#N)c1Cl` [Compound I-104, N2-(4-Chloro-3-cyano-5-ethylphenyl)-N4-(4-cyanomethoxyphenyl)-5-fluoro-2,4-pyrimidinediamine], the figure is 1140 nM; as for `N#CCOc1ccc(Nc2nc(Nc3ccc(C(N)=O)cc3)ncc2F)cc1` [Compound I-27, N2-(4-Aminocarbonylphenyl)-N4-(4-cyanomethoxyphenyl)-5-fluoro-2,4-pyrimidinediamine], 5.21 nM; as for `CCc1cc(Nc2ncc(F)c(Nc3cccc(OCC#N)c3)n2)cc(C#N)c1Cl` [Compound I-105, N2-(4-Chloro-3-cyano-5-ethylphenyl)-N4-(3-cyanomethoxyphenyl)-5-fluoro-2,4-pyrimidinediamine], 31600 nM. Still for that read-out and setting: as for `CN1CCN(c2ccc(Nc3ncc(F)c(Nc4ccc(OCC#N)cc4)n3)cc2C(N)=O)CC1` [Compound I-42, N2-[3-Aminocarbonyl-4-(4-methylpiperazin-1-yl)phenyl]-N4-(4-cyanomethoxyphenyl)-5-fluoro-2,4-pyrimidinediamine], the figure is 14 nM; as for `CC(C)(C#N)Oc1ccc(Nc2nc(Nc3cccc(C(N)=O)c3)ncc2F)cc1` [Compound I-85, N2-(3-Aminocarbonylphenyl)-N4-[4-(1-cyano-1-methylethoxy)phenyl]-5-fluoro-2,4-pyrimidinediamine], 760 nM.

The same assay, now with this note: human Ramos B cells, compound 1 hour, IL-4 50 units/mL for 20-24 hours, anti-CD23-PE FACS; read-out: Example 2 (IC50).
“5-Fluoro-N2-[2-(2-(N-morpholinyl)ethylaminocarbonyl)benzofuran-5-yl]-N4-[4-(2-propynyloxy)phenyl]-2,4-pyrimidinediamine [III-3]”: the IC50 is 149 nM. On to `CNC(=O)COc1cc(Nc2ncc(F)c(Nc3ccc4c(c3)NC(=O)CO4)n2)cc(OC)c1OC` [II-22, N2-[4,5-Dimethoxy-3-(N-methylaminocarbonylmethyleneoxy)phenyl]-5-fluoro-N4-(3-oxo-2H,4H-benzo[1,4]oxazin-6-yl)-2,4-pyrimidinediamine], for which the IC50 came to 110 nM.

For the molecule `Cc1noc(COc2cccc(Nc3nc(Nc4cccc(C(N)=O)c4)ncc3F)c2)n1` [Compound I-128, N2-(3-Aminocarbonylphenyl)-5-fluoro-N4-[3-((3-methyl-1,2,4-oxadiazol-5-yl)methyleneoxy)phenyl]-2,4-pyrimidinediamine], the IC50 is 206 nM.

As for “N2-(3-Cyanomethoxy-4,5-dimethoxyphenyl)-N4-(2,2-dimethyl-3-oxo-4H-5-pyrido[1,4]oxazin-6-yl)-5-fluoro-2,4-pyrimidinediamine [II-16]”, the IC50 was determined as 213 nM. As to `Cc1nc(COc2ccc(Nc3nc(Nc4ccc(C(=O)N5CCN(C)CC5)cc4)ncc3F)cc2)no1` [Compound I-60, 5-Fluoro-N4-[4-((5-methyl-1,2,4-oxadiazol-3-yl)methoxy)phenyl]-N2-[4-((4-methylpiperazin-1-yl)carbonyl)phenyl]-2,4-pyrimidinediamine], the IC50 worked out at 421 nM. For “N2-[1-(2-(N-Morpholinyl)ethylaminocarbonyl)-1H-indol-6-yl]-N4-[4-(2-propynyloxy)phenyl]-2,4-pyrimidinediamine [VI-2]”, the 50% inhibitory concentration (IC50) worked out at 1010 nM.

Take `Cc1noc(COc2ccc(Nc3nc(Nc4ccc(C(N)=O)cc4)ncc3F)cc2)n1` [Compound I-10, N2-(4-Aminocarbonylphenyl)-5-fluoro-N4-[4-((3-methyl-1,2,4-oxadiazol-5-yl)methyleneoxy)phenyl]-2,4-pyrimidinediamine Hydrogen Chloride Salt]: the IC50 turned out to be 4.85 nM. As for `CNC(=O)COc1cc(Nc2ncc(F)c(Nc3ccc4c(c3)NC(=O)CS4)n2)cc(OC)c1OC` [II-19, N2-[4,5-Dimethoxy-3-(N-methylaminocarbonylmethyleneoxy)phenyl]-5-Fluoro-N4-(3-oxo-2H,4H-benzo[1,4]thiazin-6-yl)-2,4-pyrimidinediamine], the IC50 came out at 95 nM.

In the case of `CNC(=O)COc1cccc(Nc2ncc(F)c(Nc3ccc4c(c3)N(Cc3ccc(OC)cc3)C(=O)C(C)S4)n2)c1` (racemic) [II-13, Racemic-5-fluoro-N2-[3-(N-methylaminocarbonylmethyleneoxy)phenyl]-N4-[2-methyl-3-oxo-4-(4-methoxybenzyl)-2H-benzo[1,4]thiazin-6-yl]-2,4-pyrimidinediamine], the IC50 turned out to be 938 nM.

With `CN1CCN(C(=O)c2ccc(Nc3ncc(F)c(Nc4cccc(OCC#N)c4)n3)cc2)CC1` [Compound I-52, N4-(3-Cyanomethoxyphenyl)-5-fluoro-N2-[4-((4-methylpiperazin-1-yl)carbonyl)phenyl]-2,4-pyrimidinediamine], the IC50 is 289 nM. For the molecule `CNC(=O)COc1cccc(Nc2ncc(Br)c(Nc3ccc(OC)c(Cl)c3)n2)c1` [Compound I-1, 5-Bromo-N4-(3-chloro-4-methoxyphenyl)-N2-[3-(N-methylaminocarbonylmethyleneoxy)phenyl]-2,4-pyrimidinediamine], the IC50 turned out to be 123 nM.
